From patent US9434705B2, “L-setastine hydrochloride and preparation method thereof” (ANHUI QINGYUN PHARMACEUTICAL & CHEMICAL CO., LTD., priority 2011, dated 2016)

Legend:
[1] = inventors' finding on antihistaminic effect and sedation of D-setastine hydrochloride; conditions: result in words
guinea pigs [2] = experiment: histamine-induced death of guinea pigs after oral dosing of test sample; type: in vivo, guinea pig; conditions: for Number of death: gavage for two days, then histamine 20 mg/kg, deaths within 24 hours, + = died next day; for Death Percentage: histamine 20 mg/kg; for protective effect on histamine-induced death for guinea pigs: 0.16-0.68 mg/kg, result in words
Procedure: 1. Sample name: KL-001 (R-setastine hydrochloride prepared in embodiment 6), KL-002 (L-setastine hydrochloride prepared from embodiment 2, 3, 4, 5, or 6), and KL-003 (setastine hydrochloride racemic) provided by Anhui Kelong medicine research institute).
2. The specifications of content: There are three groups of each sample, which is high, medium, and small-dose group, wherein dosages for high, medium, small-dose group are 0.68 mg/kg, 0.32 mg/kg, and 0.16 mg/kg respectively. The dosages are considerable 20, 10, and 5 times comparing with the clinical dosages.
3. The preparation method for test sample: For the KL-001 sample, 84 ml of distilled water is added to KL-001 sample so as to obtain a large-dose group of KL-001, which is according to the gavage feeding volume of guinea pigs, which is 0.1 ml/100 g, which is the same as 0.68 mg/kg; and medium and small-does group of KL-001 are diluted by the high-dose group of KL-001 for double and quadruple times. For the KL-002 sample, 125 ml of distilled water is added to KL-002 sample to obtain a large-dose group of KL-002, which is according to the gavage feeding volume of guinea pigs, which is 0.1 ml/100 g, which is the same as 0.68 mg/kg; and medium and small-does group are diluted by the high-dose group for double and quadruple times. For KL-003 sample, 75 ml of distilled water is added to KL-003 sample so as to obtain a large-dose group of KL-003, which is according to the gavage feeding volume of guinea pigs, which is 0.1 ml/100 g, which is the same as 0.68 mg/kg; and medium and small-does group of KL-003 are diluted by the high-dose group of Kl-003 for double and quadruple times.
112 guinea pigs are fed in the feeding environment (to adapt in the environment) for three days, and are randomly divided into 10 groups, namely a control group, a high-dose group of KL-001, a medium-dose group of KL-001, a small-dose group of KL-001, a high-dose group of KL-002, a medium-dose group of KL-002, a small-dose group of KL-002, a high-dose group of KL-003, a medium-dose group of KL-003, and a small-dose group of KL-003. The dosage for high-dose group of Kl-001, KL-002, and Kl-003 is 0.68 mg/kg, and the dosage for medium-dose group of Kl-001, KL-002, and Kl-003 is 0.32 mg/kg, and the dosage for small-dose group of Kl-001, KL-002, and Kl-003 is 0.16 mg/kg, which are 20, 10, 5 times respectively comparing with the clinical dose. Each guinea pig from each group is fed by corresponding amounts of test sample for two days, which is according to the amount of 0.1 ml/100 g. Finally, each guinea pig is fed with lethal dose of histamine, which is 20 mg/kg after the last injection of test sample, and then observing the number of deaths of guinea pigs within 24 hours.

patients = conditions: racemic drug, China market; cited from earlier work
guinea pigs [3] = conditions: background statement; cited from earlier work

| SMILES | antihistaminic effect [1] | side effects of sedation [1] | Number of death (guinea pigs [2]; 0.16 mg/kg (small dose)) | Death Percentage (guinea pigs [2]; 0.16 mg/kg (small dose)) | Number of death (guinea pigs [2]; 0.32 mg/kg (medium dose)) | Death Percentage (guinea pigs [2]; 0.32 mg/kg (medium dose)) | Number of death (guinea pigs [2]; 0.68 mg/kg (high dose)) | Death Percentage (guinea pigs [2]; 0.68 mg/kg (high dose)) | protective effect on histamine-induced death for guinea pigs (guinea pigs [2]) | protective effect on histamine-induced death for guinea pigs (guinea pigs [2]; listed as D-setastine hydrochloride) | protective effect on histamine-induced death for guinea pigs (guinea pigs [2]; listed as Kl-001) | protective effect on histamine-induced death for guinea pigs (guinea pigs [2]; listed as setastine hydrochloride racemic) | sedative side effects in clinical use (patients) | histamine-induced bronchial spasms (guinea pigs [3]) | protective effect on histamine-induced death for guinea pigs (guinea pigs [2]; listed as L-setastine hydrochloride) | protective effect compared with setastine hydrochloride racemic (guinea pigs [2]; comparison in words) |
| --- | --- | --- | --- | --- | --- | --- | --- | --- | --- | --- | --- | --- | --- | --- | --- | --- |
| CC(OCCN1CCCCCC1)(c1ccccc1)c1ccc(Cl)cc1.Cl (stereo not drawn) | no antihistaminic effect | can produce side effects of sedation | 11 | 100% | 11 | 100% | 11 | 100% | doesn't has the protective effect | no protective effect | doesn't has protective effect |  |  |  |  |  |
| CC(OCCN1CCCCCC1)(c1ccccc1)c1ccc(Cl)cc1 (racemic) [KL-003] |  |  | 6 + 2 | 66% | 3 + 1 | 36% | 1 + 1 | 16% | significant protective effect |  |  | have protective effects | stronger sedative side effects | inhibit |  |  |
| C[C@@](OCCN1CCCCCC1)(c1ccccc1)c1ccc(Cl)cc1 [KL-002] |  |  | 4 + 1 | 45% | 2 | 18% | 0 | 0% | significant protective effect |  |  |  |  |  | have protective effects | stronger |
